In US11370779B2, “Pharmaceutical composition for preventing or treating acute myeloid leukemia or metastatic breast cancer” (PELEMED CO., LTD., priority 2017, dated 2022):
Structures can show the parent of a compound that is named as a salt. Where two headings read alike, the source gives them in different places. Blank lines part the entries; values can stand above or below the compound they belong to.

Legend:
FLT3 kinase = FLT3 kinase (Homo sapiens (Human), UniProt P36888); assay: In vitro FLT3 kinase HTRF assay (Example 2); assay type: biochemical; conditions: HTRF
Protocol: Inhibition of the FLT3 kinase activity was measured using homogeneous, time-resolved fluorescence (HTRF) assays. Recombinant proteins containing the FLT3 kinase domain were purchased from Carna biosciences (Japan). Optimal enzyme, ATP, and substrate concentrations were established using the HTRF KinEASE kit (Cisbio, France) according to the manufacturer's instructions. The FLT3 enzymes were mixed in sequence with diluted compounds and peptide substrates in a kinase reaction buffer (50 mM HEPES (pH 7.0), 500 μM ATP, 0.1 mM sodium orthovanadate, 5 mM MgCl2, 1 mM DTT, 0.01% bovine serum albumin (BSA), and 0.02% NaN3). After the addition of the reagents for detection, the TR-FRET signal was measured using a Victor multilabel reader (Perkin Elmer, Waltham, Mass., USA). […] JAK2, JAK3, cMET, and RET in vitro kinase assays were also performed using the HTRF assay.

MV4;11 cells = assay: Cell viability, EZ-Cytox tetrazolium assay, MV4;11; assay type: cell-based, human; conditions: 72 hours; for GI50: read-out: GI50(nM) MV4;11
Protocol: The cultured cells were incubated at 3° C. with 5% CO2.
(§1) Cell viability was assessed by a tetrazolium-based assay using the EZ-Cytox Cell Viability Assay kit (DaeilLab, Korea). Briefly, 2,000 to 15,000 cells were plated in 96-well plates in 100 μl of medium. The next day, the cells were treated with compounds together with dimethyl sulfoxide (DMSO) as a negative control. Three days (72 hours) after the drug addition, 15 μl of the EZ-Cytox kit reagent was added to each well of the 96-well plate and then incubated at 37° C. in a humidified CO2 incubator for 4 hours. After incubation, the optical density (OD) was measured at a wavelength of 450 nm using a Victor multilabel reader (Perkin Elmer, Waltham, Mass., USA).

MDA-MB-231 = assay: Cell viability, EZ-Cytox tetrazolium assay, MDA-MB-231; assay type: cell-based, human; conditions: 72 hours
Protocol: MDA-MB-231 (metastatic breast cancer, ATCC HTB-26), Jurkat (human acute T lymphocytic leukemia, ATCC TIB-152), and K-562 (human chronic myelogenous leukemia, ATCC CCL-243) cells were cultured in RPMI-1640 (Sigma Co.). MCF7 (human breast adenocarcinoma, ATCC HTB-22) and PC-3 (human prostate adenocarcinoma, ATCC CRL-1435) cells were cultured in DMEM (Sigma Co.) medium supplemented with 10% fetal bovine serum and 1% penicillin/streptomycin. The cultured cells were incubated at 3° C. with 5% CO2.
as §1, with “USA). The IC50 was calculated by nonlinear regression using Prism version 5.01 (GraphPad, La Jolla, Calif., USA).” for “USA).”

MDA-MB-231 xenograft = assay: MDA-MB-231 mouse tumor xenograft; assay type: in vivo; conditions: 20 mg/kg/p.o/day, 4 weeks
Protocol: 6-weeks-old Balb/c nu/nu mice (female) were purchased from Central Lab. Animal Inc. to be used. […] The candidate substances LDD-2614 (Compound 21), 2633 (Compound 28), 2634 (Compound 34), 2635 (Compound 33) were administered at 20 mg/kg/p.o/day, and doxorubicin, which was a control, was administered at 5 mg/kg/i.p (once a week) for 4 weeks.

MV4-11 xenograft = assay: MV4-11 mouse tumor xenograft, oral administration
MOLM14 Wild type = assay: Cell proliferation MTT assay, MOLM14 wild type; assay type: cell-based; conditions: Homo sapiens, MOLM-14
MOLM14 FLT3-ITD-D835Y = assay: Cell proliferation MTT assay, MOLM14-ITD-D835Y; assay type: cell-based, human; conditions: for GI50: Homo sapiens, MOLM-14
[1] = Table 1, recombinant FLT3 kinase domain, 500 μM ATP

FLT3 kinase, sequence (P36888 610-943): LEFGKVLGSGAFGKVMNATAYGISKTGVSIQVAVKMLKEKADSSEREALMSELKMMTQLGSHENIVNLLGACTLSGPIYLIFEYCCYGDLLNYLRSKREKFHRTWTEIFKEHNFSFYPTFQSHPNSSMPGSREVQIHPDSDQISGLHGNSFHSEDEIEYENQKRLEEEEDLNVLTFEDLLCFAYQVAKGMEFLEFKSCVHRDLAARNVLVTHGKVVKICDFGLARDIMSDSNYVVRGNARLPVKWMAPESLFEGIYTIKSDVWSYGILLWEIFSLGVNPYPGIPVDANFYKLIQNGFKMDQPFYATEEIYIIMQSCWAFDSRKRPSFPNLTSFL

Compound: Cl.Cl.O=C1Nc2ccccc2/C1=C1/Nc2ccccc2/C1=N\OCCN1CCNCC1 [Compound 28, (2Z,3E)-3-((2-(piperazin-1-yl)ethoxy)imino)-[2,3′-biindolinylidene]-2′-one dihydrochloride]
weight loss or other signs of toxicity during the administration period (MV4-11 xenograft; 20 mg/kg oral once daily for 21 days): no weight loss or any other signs of toxicity | day by which the tumor disappeared (MV4-11 xenograft; 20 mg/kg oral once daily, based on measured tumor volume): ≤ 14 days | GI50 (MDA-MB-231; Homo sapiens, MDA-MB-231): 276 nM | weights of the liver and the kidney (MDA-MB-231 xenograft): no significant difference | GI50 (MV4;11 cells; Homo sapiens, MV4-11): 0.51 nM

Compound: CN1CCN(CCO/N=C2/C(=C3/C(=O)Nc4ccc(Br)cc43)Nc3ccccc32)CC1 [Compound 41, (2Z,3E)-5′-bromo-3-((2-(4-methylpiperazin-1-yl)ethoximino)-[2,3′-biindolinylidene]-2′-one dihydrochloride]
IC50 (FLT3 kinase; Table 2): 4.8 nM | GI50 (MV4;11 cells): 25 nM

Compound: CC1(COc2ccc3c(c2)ncn3-c2ccc3cccc(N4CCC(N)CC4)c3n2)COC1 [Crenolanib]
GI50 (MOLM14 Wild type): 4.7 nM | GI50 (MOLM14 FLT3-ITD-D835Y): 15 nM

Compound: CCc1nc(C(N)=O)c(Nc2ccc(N3CCC(N4CCN(C)CC4)CC3)c(OC)c2)nc1NC1CCOCC1 [Gilteritinib]
GI50 (MOLM14 Wild type): 8.5 nM | GI50 (MOLM14 FLT3-ITD-D835Y): 43 nM

Compound: CO[C@@H]1[C@H](N(C)C(=O)c2ccccc2)C[C@H]2O[C@]1(C)n1c3ccccc3c3c4c(c5c6ccccc6n2c5c31)C(=O)NC4 [Midostaurin]
GI50 (MOLM14 Wild type): 80 nM | GI50 (MOLM14 FLT3-ITD-D835Y): 79 nM

Compound: CNC(=O)c1cc(Oc2ccc(NC(=O)Nc3ccc(Cl)c(C(F)(F)F)c3)cc2)ccn1 [Sorafenib]
GI50 (MOLM14 Wild type): 28 nM | GI50 (nM) MOLM14-ITD D835Y (MOLM14 FLT3-ITD-D835Y): No Activity

Compound: (2Z,3E)-2′-oxo-3-((2-(piperazin-1-yl)ethoximino)-[2,3′-biindolinylidene]-5′-carboxylic acid dihydrochloride [Compound 10]
IC50 (FLT3 kinase; [1]): 3 nM | IC50 (MV4;11 cells; Table 1): 40 nM

Compound: (2Z,3E)-3-((2-(4-methylpiperazin-1-yl)ethoxy)imino)-5′-(trifluoromethox[2,3′-biindolinylidene]-2′-one dihydrochloride [Compound 45]
IC50 (FLT3 kinase; Table 2): 5.6 nM | GI50 (MV4;11 cells): 22 nM

Compound: (2Z,3E)-5′-fluoro-3-((2-(pyrrolidin-1-yl)ethoximino)-[2,3′-biindolinylidene]-2′-one hydrochloride [Compound 36]
GI50 (MDA-MB-231): 805 nM | IC50 (FLT3 kinase; Table 2): 267 nM | GI50 (MV4;11 cells): 212 nM

Compound: (2Z,3E)-34(2-(piperazin-1-yl)ethoxy)imino)-5′-(trifluoromethoxy)-[2,3′-biindolinylidene]-2′-one dihydrochloride [Compound 44]
IC50 (FLT3 kinase; Table 2): 40.2 nM | GI50 (MV4;11 cells): 20 nM

Second part, led by results:

IC50 (FLT3 kinase; [1]): 8 nM
Compound: O=C1Nc2ccc(C(=O)O)cc2/C1=C1/Nc2ccccc2/C1=N\O [Compound 7, (2Z,3E)-3-(hydroxyimino)-2′-oxo-[2,3′-biindolinylidene]-5′-carboxylic acid]
IC50 (MV4;11 cells; Homo sapiens, MV4-11, Table 1): 4020 nM | Ic50 (nM) MV4;11 (MV4;11 cells; Table 1): lacking anti-proliferative activity

IC50 (FLT3 kinase; [1]): 13 nM
Compound: O=C1Nc2ccc(C(=O)O)cc2/C1=C1/Nc2ccccc2/C1=N\OCCBr [Compound 8, (2Z,3E)-3-((2-bromoethoxy)imino)-2′-oxo-[2,3′-biindolinylidene]-5′-carboxylic acid]
IC50 (MV4;11 cells; Homo sapiens, MV4-11, Table 1): 340 nM

IC50 (FLT3 kinase; [1]): 3 nM
Compound: NCCO/N=C1/C(=C2/C(=O)Nc3ccc(C(=O)O)cc32)Nc2ccccc21 [Compound 9, (2Z,3E)-3-((2-aminoethoxy)imino)-2′-oxo-[2,3′-biindolinylidene]-5′-carboxylic acid hydrochloride]
IC50 (MV4;11 cells; Homo sapiens, MV4-11, Table 1): 150 nM

IC50 (FLT3 kinase; Table 2): 23.4 nM
Compound: O=C1Nc2ccc([N+](=O)[O-])cc2/C1=C1/Nc2ccc(O)cc2/C1=N\O [Compound 13, (2Z,3E)-5-hydroxy-3-(hydroxyimino)-5′-nitro-[2,3′-biindolinylidene]-2′-one]
GI50 (MDA-MB-231; Homo sapiens, MDA-MB-231): 568 nM | GI50 (MV4;11 cells; Homo sapiens, MV4-11): 170 nM

weights of the liver and the kidney (MDA-MB-231 xenograft): no significant difference
Compound: Cl.Cl.O=C1Nc2ccc(F)cc2/C1=C1/Nc2ccc(F)cc2/C1=N\OCCN1CCNCC1 [Compound 21, (2Z,3E)-5,5′-difluoro-3-((2-(piperazin-1-yl)ethoxy)imino)-[2,3′-biindolinylidene]-2′-one dihydrochloride]
GI50 (MDA-MB-231; Homo sapiens, MDA-MB-231): 121 nM | GI50 (MV4;11 cells; Homo sapiens, MV4-11): 8.9 nM

IC50 (FLT3 kinase; Table 2): 939 nM
Compound: O=C1Nc2ccc(F)cc2/C1=C1/Nc2ccc(F)cc2/C1=N\OCCN1CCOCC1 [Compound 27, (2Z,3E)-5,5′-difluoro-3-((2-morpholinoethoxy)imino)-[2,3′-biindolinylidene]-2′-one hydrochloride]
GI50 (MDA-MB-231; Homo sapiens, MDA-MB-231): > 10 nM | GI50 (MV4;11 cells; Homo sapiens, MV4-11): 116 nM

weights of the liver and the kidney (MDA-MB-231 xenograft): no significant difference
Compound: CN1CCN(CCO/N=C2/C(=C3/C(=O)Nc4ccc(F)cc43)Nc3ccccc32)CC1.Cl.Cl [Compound 34, (2Z,3E)-5′-fluoro-3-((2-(4-methylpiperazin-1-yl)ethoxy)imino)-[2,3′-biindolinylidene]-2′-one dihydrochloride]
GI50 (MDA-MB-231; Homo sapiens, MDA-MB-231): 127 nM | GI50 (MV4;11 cells; Homo sapiens, MV4-11): 11.1 nM
